From PubChem BioAssay (NCI)
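Where inhibition never reached the appropriate level, the endpoint shown equals the highest concentration tested. Otherwise, values were interpolated linearly from a five-concentration, 48-hour dose response in 96-well plates. Here, GI50 denotes the concentration required for 50% inhibition of growth. TGI: total growth inhibition.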

Legend:
Assay in all cases: DTP human tumour cell line panel, 48 h
SK-MEL-28 melanoma = test system: SK-MEL-28 melanoma
HT29 colon = test system: HT29 colon
UACC-257 melanoma = test system: UACC-257 melanoma
LXFL 529 NSCLC = test system: LXFL 529 NSCLC
DMS 114 small cell lung = test system: DMS 114 small cell lung
K-562 leukemia = test system: K-562 leukemia
SK-MEL-5 melanoma = test system: SK-MEL-5 melanoma
HCT-15 colon = test system: HCT-15 colon

Row | SMILES | TGI (SK-MEL-28 melanoma) [µM] | TGI (HT29 colon) [µM] | TGI (UACC-257 melanoma) [µM] | TGI (LXFL 529 NSCLC) [µM] | TGI (DMS 114 small cell lung) [µM] | TGI (K-562 leukemia) [µM] | TGI (SK-MEL-5 melanoma) [µM] | TGI (HCT-15 colon) [µM] | GI50 (HCT-15 colon) [µM] | GI50 (SK-MEL-28 melanoma) [µM] | GI50 (HT29 colon) [µM] | GI50 (UACC-257 melanoma) [µM] | GI50 (LXFL 529 NSCLC) [µM] | GI50 (DMS 114 small cell lung) [µM] | GI50 (K-562 leukemia) [µM] | GI50 (SK-MEL-5 melanoma) [µM]
1 | Clc1cc(Cl)cc(C2SCc3nc4ccccc4n32)c1 (centres undefined) | 36.1 | 25.2 | 32.4 | 36.3 | 44.7 | 25.2 | 25.7 | – | – | – | – | – | – | – | – | –
2 | Clc1cc2nc[nH]c2cc1Cl | > 100 | > 100 | – | > 100 | > 100 | > 100 | – | > 100 | – | – | – | – | – | – | – | –
3 | CCOC(=O)C1Nc2ccc([N+](=O)[O-])cc2[C@H]2OCC[C@@H]12 (some centres undefined) | > 100 | > 100 | > 100 | – | > 100 | > 100 | > 100 | > 100 | – | – | – | – | – | – | – | –
4 | CCOC(=O)NC(=O)c1cn(CC(=O)NCC(=O)NCC(=O)N2CCN(CCn3c(C)nc(C(N)=O)c3N)CC2)c(=O)[nH]c1=O | > 100 | > 100 | > 100 | > 100 | > 100 | > 100 | > 100 | > 100 | – | – | – | – | – | – | – | –
5 | O=C1C2c3[nH]c4ccccc4c3C3CCC(c4ccccc4)CC3C2C(=O)N1c1ccccc1 (centres undefined) | > 100 | > 100 | – | > 100 | > 100 | > 100 | > 100 | > 100 | – | – | – | – | – | – | – | –
6 | CCCCN1C(=O)C2c3[nH]c4ccccc4c3C3CCCCC3C2C1=O (mixture of isomers) | > 100 | > 100 | – | 29.1 | 44.6 | 28.3 | 90.3 | > 100 | – | – | – | – | – | – | – | –
7 | OCC(O)C(O)C(O)c1nn[nH]n1 (centres undefined) | – | > 100 | – | > 100 | > 100 | > 100 | > 100 | > 100 | – | – | – | – | – | – | – | –
8 | C[C@]12CC[C@H](OC(=O)Cc3ccc(N(CCCl)CCCl)cc3)CC1CC[C@@H]1C2CC[C@]2(C)NC(=O)CCC12 (some centres undefined) | 31.9 | 3.79 | 27 | 25 | 21.9 | 24.8 | 32.5 | 30.6 | – | – | – | – | – | – | – | –
9 | Cc1ccc2oc(=O)cc(CC(=O)O)c2c1 | > 100 | > 100 | – | > 100 | – | > 100 | > 100 | > 100 | – | – | – | – | – | – | – | –
10 | [O-]c1ccccc1[C-]=Nc1ccccc1O.[O-]c1ccccc1[C-]=Nc1ccccc1O.[O]=[U]=[O] | 35.9 | 95.3 | 26.3 | 34.8 | 23.2 | > 100 | 43 | 36.3 | 3.56 | 14 | 16 | 3.9 | 4.11 | 2.4 | 2.79 | 8.38
11 | CC(C)(C)c1cc(O)c2c(c1O)C(=O)CCC2 | > 100 | > 100 | 74.3 | > 100 | 69.1 | > 100 | 39.2 | > 100 | – | – | – | – | – | – | – | –
12 | CCCCCCN(CCCCCC)C1=CC(=O)C(=O)c2ccccc21 | 31.8 | 35.6 | 28.6 | 33.4 | – | 46.4 | 30.9 | 34.8 | – | – | – | – | – | – | – | –
13 | CN1CCN2c3ccccc3CC(C#N)(C#N)C2C1 (centres undefined) | > 100 | > 100 | > 100 | > 100 | > 100 | > 100 | > 100 | > 100 | – | – | – | – | – | – | – | –
14 | CC[C@@]1(O)C(=O)OCc2c1cc1n(c2=O)Cc2cc3c([N+](=O)[O-])c(O)ccc3nc2-1 | 35.5 | > 100 | 16 | > 100 | 1.2 | > 100 | 2.39 | > 100 | 2.71 | 2.75 | 2.64 | 1.19 | 4.33 | 0.0601 | 0.84 | 0.459
15 | CN1C(=O)C(C)(C)NS1(=O)=O | > 100 | > 100 | > 100 | > 100 | > 100 | > 100 | > 100 | > 100 | – | – | – | – | – | – | – | –
16 | COC(=O)CCC(=O)Nc1cccc(C(F)(F)F)c1 | > 100 | > 100 | > 100 | > 100 | > 100 | > 100 | > 100 | > 100 | – | – | – | – | – | – | – | –
17 | CN(C(=N)c1ccccc1)c1ccccc1 | > 100 | > 100 | – | > 100 | – | > 100 | > 100 | > 100 | – | – | – | – | – | – | – | –
